Values of other authors, collected in patent US20200268651A1, “STABLE VITAMIN B12 LIQUID FORMULATIONS” (priority 2019, published 2020).

How the values were obtained:
[1] = ascorbic acid (AH2), studied at pH 1.0-8.0
[2] = long-term use

Row | people with reduced serum levels of vitamin B12 [2] | Molecule | pH of maximum rate of degradation in the presence of ascorbic acid [1] [pH]
1 | – | C/C1=C2/[N-][C@H]([C@H](CC(N)=O)[C@@]2(C)CCC(=O)NC[C@@H](C)OP(=O)([O-])O[C@H]2[C@@H](O)[C@@H](n3cnc4cc(C)c(C)cc43)O[C@@H]2CO)[C@]2(C)N=C(/C(C)=C3N=C(/C=C4N=C1[C@@H](CCC(N)=O)C\4(C)C)[C@@H](CCC(N)=O)[C@]\3(C)CC(N)=O)[C@@H](CCC(N)=O)[C@]2(C)CC(N)=O.[Co+3].[OH-] [hydroxocobalamin] | 5.0
2 | up to 30% | CN(C)C(=N)N=C(N)N [metformin] | –
3 | – | cyanocobalamin | 5.0
